Results as given in patent US7427625B2, “Substituted thiatriazaacenaphthylene-6-carbonitrile kinase inhibitors” (Janssen Pharmaceutica, N.V., priority 2006, dated 2008).

Experiments:
HER-2 = target: T1, HER-2 (Homo sapiens, UniProt P04626); assay: HER-2 Kinase Assay; assay type: biochemical
T1 construct: the nucleotides encoding amino acids 679 to 1255 of HER-2; purchased Proqinase (Freiburg, Germany)
Method in brief: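 GST-HIS6-thrombin fusion of HER-2 residues 679–1255, assayed with biotinylated polyGluTyr, 1 μM ATP plus γ-33P-ATP, Mg2+, Mn2+ and vanadate in Hepes pH 7.5 for 1 h at 30 °C. Incorporation read by streptavidin Flashplate scintillation counting; IC50 values, or % inhibition at 1 μM.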

[1] = tested on: HeLa cervical adenocarcinoma; assay: Cell Proliferation Inhibition Assay (14C-thymidine incorporation), HeLa; assay type: cell-based; conditions: Homo sapiens
Protocol: The ability of a test compound to inhibit unregulated cell proliferation was determined by measuring incorporation of ^14C-labelled thymidine into newly synthesized DNA within cell lines derived from carcinomas originating from several tissues. Accordingly, the anti-proliferative effect of a compound on cells with a variety of phenotypes may be determined.
Carcinoma cell lines include those such as HeLa cervical adenocarcinoma (American Type Culture Collection (ATCC), Virginia, Cat. #CCL-2), A375 malignant melanoma (ATCC CRL-1619), SK-OV-3 ovarian adenocarcinoma (ATCC HTB-77), HCT-116 colon carcinoma (CCL-247), PC-3 prostate adenocarcinoma (ATCC CRL-1435), and MDA-MB-231 (Xenogen Corp.)
The carcinoma cells were trypsinized and counted. The cells (3000-8000 count) were added to each well of a 96-well CytoStar tissue culture treated scintillating microplate (Amersham #RPNQ0160) in complete medium (100 μL) and the plate was then incubated in complete medium for 24 hrs at 37° C. in an […] atmosphere containing 5% CO2. Test compound (1 μL) in 100% DMSO was added to the plate test-wells with DMSO only added to control-wells. The plate was incubated in complete medium for a second 24 hr period at 37° C. in an atmosphere containing 5% CO2.
An aliquot of a solution of Methyl ^14C-thymidine ([…]) (NEN #NEC568 or Amersham #CFA532) and complete medium (20 uL to provide 0.2 μCi/well) was then added to each well and the plate was incubated for a third 24 hr period at 37° C. in an atmosphere containing 5% CO2. The plate contents were then discarded, the plate was washed twice with PBS (200 μL) and then PBS (200 μL) was added to each well. The plate was sealed and the degree of methyl ^14C-thymidine incorporation was quantified on a Packard Top Count.

Aurora-A = target: T2, Aurora-A (Mus musculus, UniProt P97477); assay: Aurora-A Screening Assay; assay type: biochemical, murine
T2 construct: followed by the full length protein encoding the murine Aurora-A; polyhistidine (N); made in house; host or cells: sf9 insect cells
T2 sequence (P97477 1-395): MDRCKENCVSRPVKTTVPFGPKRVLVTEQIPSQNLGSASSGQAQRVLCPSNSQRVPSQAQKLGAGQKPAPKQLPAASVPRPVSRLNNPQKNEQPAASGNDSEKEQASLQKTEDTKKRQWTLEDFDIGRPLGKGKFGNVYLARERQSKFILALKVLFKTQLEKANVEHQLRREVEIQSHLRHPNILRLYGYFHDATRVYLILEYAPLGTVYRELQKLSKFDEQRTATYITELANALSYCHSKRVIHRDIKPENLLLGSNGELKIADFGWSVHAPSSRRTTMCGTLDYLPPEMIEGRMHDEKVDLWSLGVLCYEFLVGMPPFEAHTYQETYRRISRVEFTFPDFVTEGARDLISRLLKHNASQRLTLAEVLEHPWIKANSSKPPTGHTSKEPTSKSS

T1 sequence (P04626 679-1255): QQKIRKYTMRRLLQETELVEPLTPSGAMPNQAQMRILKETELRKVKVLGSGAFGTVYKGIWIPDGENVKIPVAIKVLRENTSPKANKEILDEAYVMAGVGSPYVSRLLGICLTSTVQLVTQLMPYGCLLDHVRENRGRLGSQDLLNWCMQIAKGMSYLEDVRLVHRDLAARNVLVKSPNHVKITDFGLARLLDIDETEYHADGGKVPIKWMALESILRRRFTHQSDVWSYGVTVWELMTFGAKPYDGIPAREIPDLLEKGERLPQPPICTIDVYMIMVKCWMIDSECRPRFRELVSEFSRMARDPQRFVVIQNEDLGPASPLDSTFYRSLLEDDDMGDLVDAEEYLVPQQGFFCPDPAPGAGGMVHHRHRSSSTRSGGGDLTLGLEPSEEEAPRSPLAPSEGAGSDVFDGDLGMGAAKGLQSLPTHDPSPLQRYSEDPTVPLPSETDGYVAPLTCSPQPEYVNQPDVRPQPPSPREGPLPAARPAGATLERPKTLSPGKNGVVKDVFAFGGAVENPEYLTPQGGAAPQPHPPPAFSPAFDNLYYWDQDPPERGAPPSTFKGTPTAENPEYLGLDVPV

- IC50 (HER-2): 836 nM
- IC50 [1]: 2190 nM
- IC50 (Aurora-A): > 100 µM
SMILES: N#Cc1cnc2sc(C(=O)Nc3ccc(CN4CCCCC4)cc3)c3c2c1N(c1ccc(Oc2ccccc2)cc1)C(=O)N3 [Cpd 49, 6-cyano-4-oxo-5-(4-phenoxy-phenyl)-4,5-dihydro-3H-1-thia-3,5,8-triaza-acenaphthylene-2-carboxylic acid (4-piperidin-1-ylmethyl-phenyl)-amide]
